Measurements reported in patent publication US20170209499A1, “Propolis and Extracts Thereof for the Treatment of Skin Cancers and Improvement of Skin Health” (Manuka Health New Zealand Limited, priority 2014, published 2017).
Several values for one entry are separate records, joined by “and”; a condition that tells them apart may be missing. Equal entries are not always repeated.

Legend:
Assay type in all cases: cell-based
[1] = system: human melanoma cell line A-2058; assay: MTT cell proliferation assay, human melanoma cell line A-2058; conditions: for Mean OD: MTT Optical Density at 570 nm
From the text: This example describes the in vitro bioassay used for determining the anti-proliferative activity of test compounds and cyclodextrin-encapsulated propolis complexes against human skin cancer cell lines. The present example tests anti-proliferative efficacy against the human melanoma cell line, A-2058. The cyclodextrin-encapsulated propolis complexes tested are those described in Example 1. The NZ propolis was the same propolis used to manufacture the cyclodextrin complexes CD1-CD3. The Brazilian Green propolis was the same propolis used to manufacture the cyclodextrin complex CD4. The test samples were dissolved in 15% Ethanol (EtOH)/HBSS to make a working solution, which was then diluted 10 times to give a final concentration in the cells of 50 μg/ml unless indicated otherwise.
(§1) The three human skin cancer cell lines were: • 1) Human Melanoma cell line (A-2058). • 2) Human Epidermoid (Squamous) Carcinoma cell line (A-431). • 3) Human Basal Cell Carcinoma cell line (TE 354.T).
(§2) The cell lines were revived from cryostorage and cultured in the presence of the test and reference samples. An MIT assay was then performed on the cultures to determine the effect of the samples on the cell viability and proliferation. The percentage standard error of the mean was assessed and extreme outliers were removed if the SEM%>15. Preliminary statistical significance was assessed with an independent Student t-test at α<0.05 (with and without outliers). The methodology was based on the procedures reported by: • Ahn, N G, Campbell J S (1993). […] Proc Natl Acad Sci. 90: 5143-5147. • Galan-Cobo, A et al (2014). Functional inhibition of aquaporin-3 with a gold-based compound induces blockage of cell proliferation. J Cellul. Physiol. 229: 1787-1801. • Roomi, M W, Kalinovsky, J et al (2013) Effect of a nutrient mixture on matrix metalloproteinase-9 dimers in various human cancer cell lines. Inter 3 Oncol. 44: 936-942. • Huang, H C, Lin, M K et al (2013). Cardenolides and bufadienolide glycosides from Kalanchoe tubiflora and evaluation of cytotoxicity. Planta Medica. 79: 1362-1369. • Tilli, C M L J, Stavast-Kooy, A J W et al (2003). The garlic-derived organosulfur component ajoene decreases basal cell carcinoma tumor size by inducing apoptosis. Arch Dermatol Res. 295: 117-123.
• 1. Human melanoma cell line (A-2058, ATCC CRL11147) was obtained from ATCC, Bethesda, Md., USA. • 2. Human squamous (epidermoid) carcinoma cell line (A-431, ATCC CRL1555) was obtained from ATCC, Bethesda, Md. USA. • 3. Human basal cell carcinoma cell line (TE 354.T, ATCC CRL7762) was obtained from ATCC, Bethesda, Md., USA. • 4. Dulbecco's Modified Eagle's Medium (DMEM) was obtained from GIBCO (12100-038). 10% Foetal Bovine Serum (FBS), 100 U/ml Penicillin and […] Streptomycin were added before use. • 5. Penicillin-streptomycin solution, stored at −20° C. consisting of 10000 units/ml penicillin and 10 mg/ml streptomycin in 0.9% NaCl was obtained from Sigma (#P-0781). • 6. Trypsin-EDTA solution consisting of 0.25% Trypsin/EDTA was obtained from Invitrogen (#15400054). • 7. Phosphate buffered saline (PBS) was prepared in-house. • 8. Hanks Balanced Salt Solution (HBSS), stored at 4° C. was obtained from GIBCO (#14185-052). • 9. Foetal Bovine Serum (FBS) stored at −20° C. was obtained from GIBCO (#10091-148). • 10. MTT Reagent, 100 mg/vial, was obtained from Sigma (M-2128) and then dissolved in PBS at 10 mg/ml and stored at −20° C. A 5 mg/ml MTT solution was prepared in PBS and stored at 4° C. as the working solution. • 11. MU lysis buffer: 10% sodium dodecyl sulphate (SDS)/45% Dimethyl Formamide was prepared by dissolving 20 g SDS in 100 ml of double-distilled water (DDW), and then adding 90 ml of Dimethyl Formamide to the solution. The pH was adjusted to 4.7 by glacial acetic acid, and DDW added up to a final volume of 200 ml. • 12. 5-Fluorouracil (5-FU) was supplied by Sigma (F-6627). Three working solutions were prepared at 19.5 μg/ml. 6.5 μg/ml and 1.95 μg/ml dissolved in 15% Ethanol/HBSS. […]

[2] = system: human epidermoid cancer cell line A-431; assay: MTT cell proliferation assay, human epidermoid (squamous) carcinoma cell line A-431; conditions: A-431, 200 μg/ml; for % inhibition / inhibition at 200 µg/mL: 24 hr incubation, vs cells only; for Mean OD: MTT Optical Density at 570 nm; for inhibition at 200 µg/mL: Homo sapiens
Protocol: as §1, §2
(§3) • 1. Human melanoma cell line (A-2058, ATCC CRL11147) was obtained from ATCC, Bethesda, Md., USA. • 2. Human squamous (epidermoid) carcinoma cell line (A-431, ATCC CRL1555) was obtained from ATCC, Bethesda, Md. USA. • 3. Human basal cell carcinoma cell line (TE 354.T, ATCC CRL7762) was obtained from ATCC, Bethesda, Md., USA. • 4. Dulbecco's Modified Eagle's Medium (DMEM) was obtained from GIBCO (12100-038). 10% Foetal Bovine Serum (FBS), 100 U/ml Penicillin and […] Streptomycin were added before use. • 5. Penicillin-streptomycin solution, stored at −20° C. consisting of 10000 units/ml penicillin and 10 mg/ml streptomycin in 0.9% NaCl was obtained from Sigma (#P-0781). • 6. Trypsin-EDTA solution consisting of 0.25% Trypsin/EDTA was obtained from Invitrogen (#15400054). • 7. Phosphate buffered saline (PBS) was prepared in-house. • 8. Hanks Balanced Salt Solution (HBSS), stored at 4° C. was obtained from GIBCO (#14185-052). • 9. Foetal Bovine Serum (FBS) stored at −20° C. was obtained from GIBCO (#10091-148). • 10. MTT Reagent, 100 mg/vial, was obtained from Sigma (M-2128) and then dissolved in PBS at 10 mg/ml and stored at −20° C. A 5 mg/ml MTT solution was prepared in PBS and stored at 4° C. as the working solution. • 11. MU lysis buffer: 10% sodium dodecyl sulphate (SDS)/45% Dimethyl Formamide was prepared by dissolving 20 g SDS in 100 ml of double-distilled water (DDW), and then adding 90 ml of Dimethyl Formamide to the solution. The pH was adjusted to 4.7 by glacial acetic acid, and DDW added up to a final volume of 200 ml. • 12. 5-Fluorouracil (5-FU) was supplied by Sigma (F-6627). Three working solutions were prepared at 19.5 μg/ml. 6.5 μg/ml and 1.95 μg/ml dissolved in 15% Ethanol/HBSS. Final concentrations were 1.95 μg/ml (15 μM), 0.65 μg/ml (5 μM) and 0.195 μg/ml (1.5 μM).
(§4) • 1. Each of the cell lines was revived from cryostorage. • 2. Following initial propagation using the media described above (Characterisation of Test System, and Medium Preparation), the cell culture was subcultured using trypsin-EDTA. The media was removed and 5ml of the trypsin-EDTA solution added and incubated at 37° C. for 5 min or until all the cells had detached. The trypsin was neutralised by the addition of an equal volume of the relevant medium and centrifugation of the suspension at 300 g (1200 rpm) for 5 min at 4° C. • 3. […]

[3] = system: human basal carcinoma cell line TE 354.T; assay: MTT cell proliferation assay, human basal cell carcinoma cell line TE 354.T; conditions: 200 μg/ml; for % inhibition / inhibition at 200 µg/mL: 24 hr incubation, vs cells only; for Mean OD: MTT Optical Density at 570 nm; for inhibition at 200 µg/mL: Homo sapiens
Protocol: as §1, §2, §3, §4

[4] = Homo sapiens, A2058, 24 h, A-2058, final conc. 200 μg/ml, 24 hr incubation, vs cells only
[5] = A-2058, final conc. 200 μg/ml, 24 hr incubation, vs cells only

Q: Which results are given for `O=C(O)/C=C/C=C/c1ccccc1` [5-phenyl penta-2,4-dienoic acid, 5-phenylpenta-2,4-dienoic acid]?
A: Mean OD ([1]; A-2058, 200 μg/ml): 0.1548; inhibition at 200 µg/mL [1, 4]: 23.1%

Q: Which “Mean OD” value ([1]; A-2058, 200 μg/ml) does the source give for `COc1cc(/C=C/C(=O)OCc2ccccc2)ccc1O` [Benzyl ferulate] here?
A: 0.0040

Q: And the “% inhibition” value [1, 5]?
A: completely killed all the melanoma cells

Q: What about the inhibition at 200 µg/mL [1, 4] of the same compound?
A: 98%

Q: With `O=C(/C=C/c1ccc(O)c(O)c1)OCCc1ccccc1` [CAPE, caffeic acid phenethyl ester, reference compound] as the compound, how does the “Mean OD” value ([1]; A-2058, 200 μg/ml) read?
A: 0.1018

Q: What about the “% inhibition” value [1, 5] of the same compound?
A: 49.43%

Q: What about the inhibition at 200 µg/mL [1, 4] of the same compound?
A: 49.4%

Q: For `C=C(C)CCOC(=O)/C=C/c1ccc(O)c(O)c1` [Complex 3M3BC, 3-methyl-3-butenyl caffeate], which “Mean OD” value ([1]; A-2058, 20 μg/ml) is on record?
A: 0.1070

Q: What about the “% inhibition” value ([1]; A-2058, final conc. 20 μg/ml, 24 hr incubation, vs cells only) of the same compound?
A: 46.85%

Q: And the inhibition at 20 µg/mL ([1]; Homo sapiens, A2058, 24 h, A-2058, final conc. 20 μg/ml, 24 hr incubation, vs cells only)?
A: 46.8%

Q: What about the “% inhibition” value [2] of the same compound?
A: very strong inhibitors of proliferation

Q: And the “Mean OD” value [2]?
A: 0.0475

Q: And the inhibition at 200 µg/mL [2]?
A: 81.9%

Q: And the “% inhibition” value [3]?
A: weak inhibitors of proliferation

Q: What about the “Mean OD” value [3] of the same compound?
A: 0.2245

Q: What about the inhibition at 200 µg/mL [3] of the same compound?
A: 16.7%

Q: How did the “Mean OD” value ([1]; A-2058, 200 μg/ml) turn out when `CC(=O)OC1C(=O)c2c(O)cc(O)cc2OC1c1ccccc1` (stereo not drawn) [Pinobanksin-3-o-acetate, pinobanksin-3-acetate] was run?
A: 0.0777

Q: And the “% inhibition” value [1, 5]?
A: 61.38%

Q: What about the inhibition at 200 µg/mL [1, 4] of the same compound?
A: 61.4%

Q: What about the “% inhibition” value [2] of the same compound?
A: very strong inhibitors of proliferation

Q: What about the “Mean OD” value [2] of the same compound?
A: 0.0253

Q: What about the inhibition at 200 µg/mL [2] of the same compound?
A: 90.4%

Q: What about the “% inhibition” value [3] of the same compound?
A: weak inhibitors of proliferation

Q: And the “Mean OD” value [3]?
A: 0.2416

Q: And the inhibition at 200 µg/mL [3]?
A: 10.4%

Q: What does the source list for `COc1cc(O)c2c(=O)cc(-c3ccccc3)oc2c1` [Tectochrysin]?
A: Mean OD ([1]; A-2058, 200 μg/ml): 0.0272; % inhibition [1, 5]: 86.5% and 86.48%

Q: How did the “Mean OD” value ([1]; A-2058, 200 μg/ml) turn out when `O=C(O)/C=C/c1ccc(O)cc1` [p-coumaric acid, reference compound] was run?
A: 0.2136

Q: And the inhibition at 200 µg/mL [1, 4]?
A: 0%

Q: How did the “Mean OD” value ([1]; A-2058, 200 μg/ml) turn out when `O=C1C[C@@H](c2ccccc2)Oc2cc(O)cc(O)c21` [pinocembrin] was run?
A: 0.0013

Q: What about the “% inhibition” value [1, 5] of the same compound?
A: completely killed all the melanoma cells

Q: What about the inhibition at 200 µg/mL [1, 4] of the same compound?
A: 99.3%
